Assay results: PMC9545868, “Structure‐Based Demystification of Radical Catalysis by a Coenzyme B12 Dependent Enzyme—Crystallographic Study of Glutamate Mutase with Cofactor Homologues” (Angewandte Chemie (International Ed. in English), 2022)

Molecular target: T1, glutamate mutase (GM) (Clostridium cochlearium, UniProt P80077+P80078)
T1 construct: gene glmE; hetero-tetramer of two epsilon and two sigma subunits; construct details only in the supplement
T1 sequence (P80077 1-483): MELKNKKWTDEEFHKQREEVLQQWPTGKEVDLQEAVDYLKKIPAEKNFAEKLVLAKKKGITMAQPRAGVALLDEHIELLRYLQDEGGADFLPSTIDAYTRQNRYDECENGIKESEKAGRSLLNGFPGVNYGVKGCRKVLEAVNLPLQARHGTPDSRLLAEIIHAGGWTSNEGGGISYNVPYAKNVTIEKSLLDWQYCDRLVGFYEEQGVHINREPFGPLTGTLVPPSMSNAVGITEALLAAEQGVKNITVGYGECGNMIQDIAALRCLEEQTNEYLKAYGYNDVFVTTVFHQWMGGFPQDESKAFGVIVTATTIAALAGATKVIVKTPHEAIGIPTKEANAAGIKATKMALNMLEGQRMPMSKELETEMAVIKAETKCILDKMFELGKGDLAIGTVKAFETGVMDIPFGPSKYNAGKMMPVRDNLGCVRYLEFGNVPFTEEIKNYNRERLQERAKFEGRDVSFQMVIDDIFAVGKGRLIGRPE
T1 sequence (P80078 1-137): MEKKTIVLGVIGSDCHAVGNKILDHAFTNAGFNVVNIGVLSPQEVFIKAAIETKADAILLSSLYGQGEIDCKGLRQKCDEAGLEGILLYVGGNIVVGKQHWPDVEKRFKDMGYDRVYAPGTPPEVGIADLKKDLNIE
Experiment: X-ray crystal structures, […] and […] Å
Type: binding
Details: pseudo-substrate in the substrate site of the epsilon subunit (arginine claw R66, R100, R149); with AdoMeCbl or AdoEtCbl bound

Structure (SMILES): O=C(O)[C@@H](O)[C@H](O)C(=O)O [(S,S)‐tartrate]
- X-ray crystal structures, 1.8 and 2.1 Å: strong polar binding interactions with the carboxylate groups of an (S,S)‐tartrate ion
